Laboratory results from patent US20160318933A1, “FUSED PYRAZOLE DERIVATIVE” (SUMITOMO DAINIPPON PHARMA CO., LTD., priority 2013, published 2016).

Target: T1, human brain-derived dopamine D4 receptor (Homo sapiens, UniProt P21917)
T1 construct: expressed in transfected cells; host or cells: CHO (CHO-K1) or HEK293 cells
T1 sequence (P21917 1-419): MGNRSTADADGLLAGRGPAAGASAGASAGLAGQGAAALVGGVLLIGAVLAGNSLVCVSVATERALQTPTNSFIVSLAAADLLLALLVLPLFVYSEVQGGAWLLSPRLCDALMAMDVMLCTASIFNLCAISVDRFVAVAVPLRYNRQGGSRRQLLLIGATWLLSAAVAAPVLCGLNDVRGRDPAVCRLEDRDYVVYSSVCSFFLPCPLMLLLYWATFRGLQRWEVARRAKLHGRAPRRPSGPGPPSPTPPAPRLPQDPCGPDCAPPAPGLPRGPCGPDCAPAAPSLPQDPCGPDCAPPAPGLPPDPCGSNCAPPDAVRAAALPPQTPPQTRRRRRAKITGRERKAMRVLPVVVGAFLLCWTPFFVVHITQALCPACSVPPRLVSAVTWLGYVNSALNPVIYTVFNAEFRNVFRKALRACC
Assay: Agonistic activity in G protein dependent pathway of dopamine D4 receptor (aequorin intracellular calcium luminescence, FDSS)
Type: cell-based
Conditions: for EC50: concentration required to achieve a 50% response of Emax, CHO-K1 or HEK293 cells transfected with D4 receptor; for Emax: read-out: Maximal activity on D4 receptor (%)
From the text: The G protein dependent pathway is a pathway for transmitting signals in cells via a second messenger by stimulating a G protein through the binding of guanosine triphosphate (GTP) to the G protein. When GPCRs are activated by the binding of a ligand, a G protein binds to the GPCRs, and thereby GTP binds to a Gα subunit that is one of G protein subunits and a Gγβ subunit is dissociated. The activated Gα subunit regulates intracellular cAMP levels by the activation or inhibition of an adenylate cyclase, and regulates intracellular calcium levels by the activation of phospholipase C to transmit signals in cells.
The agonistic activities of the present compounds in the G protein dependent pathway were evaluated on the basis of intracellular calcium levels as follows. CHO-K1 or HEK293 cell lines transfected with D4 receptor genes were seeded in a 384-well plate, and incubated in a CO2 incubator at 37° C. for 24 hours, and then a solution of the present compound in DMSO was added into cells preloaded with coelenterazine to measure the change in luminescent signals with a FDSS (Hamamatsu Photonics K.K.). […] The agonistic activity of the present compound was calculated according to the measured luminescent signals, as the maximal activity (Emax) of the present compound. EC50 value was calculated as the concentration of the present compound required to achieve a 50% response of Emax.

Compound | EC50 | Emax
Cc1cccnc1-c1nn2c(c1C)CN(Cc1ccc(C(F)(F)F)cc1)CC2 [Example 71] | 88 nM | 53%
Cc1ccc(CN2CCn3nc(-c4ncccc4C)c(C)c3C2)cc1 [Example 72] | 33 nM | 65%
Cc1cccnc1-c1nn2c(c1C)CN(Cc1ccccc1)CC2 [Example 73] | 30 nM | 58%
Cc1c(-c2ccccn2)nn2c1CN(Cc1ccc(C(F)(F)F)cc1)CC2 [Example 74] | 73 nM | 65%
Cc1c(-c2ccccn2)nn2c1CN(Cc1ccc(C#N)cc1)CC2 [Example 75] | 37 nM | 61%
Cc1ccc(CN2CCn3nc(-c4ccccn4)c(C)c3C2)cc1 [Example 76] | 44 nM | 59%
Cc1cccnc1-c1cc2n(n1)CCN(Cc1ccc3c(c1)N(C)C(=O)CS3)C2 [Example 77] | 58 nM | 62%
Fc1c(-c2ccccn2)nn2c1CN(Cc1ccccc1)CC2 [Example 78] | 11 nM | 51%
Fc1cccnc1-c1cc2n(n1)CCN(Cc1ccccc1)C2 [Example 79] | 3.4 nM | 83%
Cc1cccnc1-c1cc2n(n1)CCN(Cc1ccc(C(F)F)cc1)C2 [Example 80] | 18 nM | 70%
Cc1c(-c2ccccn2)nn2c1CN(Cc1ccccc1)CC2 [Example 81] | 0.7 nM | 89%
Cc1ccc(CN2CCn3nc(-c4ncccc4F)c(C)c3C2)cc1 [Example 82] | 46 nM | 91%
Cc1c(-c2ncccc2F)nn2c1CN(Cc1ccc(C(F)(F)F)cc1)CC2 [Example 83] | 84 nM | 72%
Cc1cccnc1-c1cc2n(n1)CCN(Cc1cnc(C(F)(F)F)nc1N)C2 [Example 84, 5-{[2-(3-Methylpyridin-2-yl)-6,7-dihydropyrazolo[1,5-a]pyrazin-5(4H)-yl]methyl}-2-(trifluoromethyl)pyrimidine-4-amine] | 118 nM | 68%
Cc1cccnc1-c1cc2n(n1)CCN(Cc1nc(C)n3ccccc13)C2 [Example 85] | 78 nM | 78%
Cc1cccnc1-c1cc2n(n1)CCN(Cc1ccc(C(F)(F)F)c(C#N)c1)C2 [Example 86] | 52 nM | 85%
Cc1cccnc1-c1cc2n(n1)CCN(Cc1cn3c(n1)CCCC3)C2 [Example 87] | 62 nM | 47%
Cc1cccnc1-c1cc2n(n1)CCN(Cc1cnn3c1CCCC3)C2 [Example 88] | 93 nM | 54%

Compound | EC50 | Emax
Cc1cccnc1-c1cc2n(n1)CCN(Cc1cnn3ccccc13)C2 [Example 89] | 47 nM | 39%
Cc1cccnc1-c1cc2n(n1)CCN(Cc1cc3ccccn3n1)C2 [Example 90] | 29 nM | 55%
Cc1cccnc1-c1cc2n(n1)CCN(Cc1cc3n(n1)CCCC3)C2 [Example 91] | 49 nM | 44%
Cc1c(-c2ccccn2)nn2c1CN(Cc1ccc(C(F)(F)F)nc1N)CC2 [Example 92] | 60 nM | 64%
Cc1ccnc(CN2CCn3nc(-c4ccccn4)c(C)c3C2)c1 [Example 93] | 23 nM | 56%
Cc1c(-c2ccccn2)nn2c1CN(Cc1cn3c(n1)CCCC3)CC2 [Example 94] | 42 nM | 49%
Cc1c(-c2ccccn2)nn2c1CN(Cc1ccc(C(F)(F)F)nc1)CC2 [Example 95] | 51 nM | 56%
Cc1cccnc1-c1cc2n(n1)CCN(Cc1ncn3ccccc13)C2 [Example 96] | 37 nM | 57%
Cc1cccnc1-c1cc2n(n1)CCN(Cc1ccc(Cl)cn1)C2 [Example 97] | 49 nM | 85%
Cc1ccc(CN2CCn3nc(-c4ccccn4)cc3C2)nc1N [Example 98] | 20 nM | 54%
Cc1ccc(CN2CCn3nc(-c4ncccc4C)cc3C2)cc1C#N [Example 99] | 1.1 nM | 77%
Cc1cccnc1-c1cc2n(n1)CCN(Cc1n[nH]c3cc(F)ccc13)C2 [Example 100] | 20 nM | 79%
Cc1ccc2c(CN3CCn4nc(-c5ncccc5C)cc4C3)n[nH]c2c1 [Example 101] | 78 nM | 67%
Fc1cccc2[nH]nc(CN3CCn4nc(-c5ccccn5)cc4C3)c12 [Example 102] | 116 nM | 48%
Cc1cnc(N)c(CN2CCn3nc(-c4ncccc4C)cc3C2)c1 [Example 103] | 127 nM | 53%
Cc1cccnc1-c1cc2n(n1)CCN(Cc1n[nH]c3c(C)cccc13)C2 [Example 104] | 18 nM | 67%
Cc1cccnc1-c1cc2n(n1)CCN(Cc1ccc(C(F)(F)F)nc1N)C2 [Example 105] | 69 nM | 79%

The next lines start with the values.

EC50 | Emax | Compound
66 nM | 94% | Cc1ccc(CN2CCn3nc(-c4ncccc4C)c(Cl)c3C2)nc1 [Example 106, 3-Chloro-2-(3-methylpyridin-2-yl)-5-[(5-methylpyridin-2-yl)methyl]-4,5,6,7-tetrahydropyrazolo[1,5-a]pyrazine]
13 nM | 61% | Cc1ccc(CN2CCn3nc(-c4ncccc4C)cc3C2)nc1 [Example 107]
1 nM | 66% | Cc1c(-c2ccccn2)nn2c1CN(Cc1ccc(C(F)(F)F)cn1)CC2 [Example 108]
36 nM | 68% | Cc1ccc(CN2CCn3nc(-c4ncccc4F)cc3C2)nc1 [Example 109]
18 nM | 99% | Cc1ccc(CN2CCn3nc(-c4ccccn4)c(C)c3C2)nc1 [Example 110]
159 nM | 22% | Cc1ccncc1CN1CCn2nc(-c3ncccc3C)cc2C1 [Example 111]
41 nM | 66% | Cc1cccnc1-c1cc2n(n1)CCN(Cc1ccc3c(n1)CCCC3)C2 [Example 112]
64 nM | 93% | Cc1ccc(CN2CCn3nc(-c4ncccc4C)c(C)c3C2)nc1 [Example 114]
57 nM | 105% | Cc1cccc(CN2CCn3nc(-c4ncccc4C)c(C)c3C2)n1 [Example 115]
241 nM | 51% | Cc1cccnc1-c1nn2c(c1C)CN(Cc1ccc(C(F)(F)F)nc1)CC2 [Example 117]
106 nM | 59% | Cc1cccnc1-c1nn2c(c1C)CN(Cc1ccc(C(F)(F)F)cn1)CC2 [Example 118]
145 nM | 71% | Cc1cnc(CN2CCn3nc(-c4ncccc4C)c(C)c3C2)cn1 [Example 119]
23 nM | 98% | Cc1ccc(CN2CCn3nc(-c4ncccc4F)c(C)c3C2)nc1 [Example 120]
46 nM | 84% | Cc1ccc(CN2CCn3nc(-c4ncccc4F)c(C)c3C2)cn1 [Example 121]
50 nM | 47% | Cc1cccnc1-c1cc2n(n1)CCN(Cc1ccc(CF)nc1)C2 [Example 122]
32 nM | 65% | Cc1cccnc1-c1cc2n(n1)CCN(Cc1ccc(CF)cn1)C2 [Example 123]
47 nM | 76% | Cc1c(-c2ncccc2F)nn2c1CN(Cc1ccc3c(n1)CCCC3)CC2 [Example 124]
13 nM | 98% | Cc1c(-c2ncccc2F)nn2c1CN(Cc1ccc3c(n1)CCC3)CC2 [Example 125]
